# Entries after “also recorded” stand apart in the source; their conditions may differ. Like-named read-outs stand apart in the source and are kept apart here.
# Key:
# [1] = test system: L. major spt2^− promastigotes; experiment: Composition of free sterols by GC/MS, spt2^− promastigotes; type: cell-based, Leishmania major; settings: 48 hours
# Experimental: (§1) Log phase L. major LV39 WT and spt2^− promastigotes were grown in the presence or absence of ITZ or CLT. Culture densities were determined 48 hours later and total lipids were extracted and the composition of free sterols was determined by GC/MS as described in Materials and Methods. ND: not detectable. Each experiment was repeated at least 3 times and results from one representative set were shown.
# (§2) Here WT and spt2^− parasites were grown in various concentrations of ITZ (0.001 nM to 1 μM) or CLT (10 nM to 5 μM). Effects of ITZ and CLT on growth, sterol composition and DRM were analyzed after 48 hours. Basically, culture densities were determined using a particle counter and drugs' effects on growth were assessed in comparison to control cells (no drug); sterol lipids were extracted and analyzed by GC/MS and the percentage of 14-methylfecosterol (among all detectable sterol lipids) was used to reflect changes in sterol composition (see Table 2). DRMs were also isolated and the percentage of GP63 that were insoluble at 4° C. was used as an indicator for the integrity of DRM (see FIG. 2). Two to four independent experiments were performed and the averaged results were plotted in FIG. 3.
# (§3) Total lipids were extracted using the Folch's method [Folch, et al., 1957]. Briefly, promastigotes were harvested by centrifugation and washed once with PBS. Pellets were resuspended in chloroform:methanol (2:1) at 1.0×10^8 cells/ml with the addition of cholesta-3,5-diene (Sigma-Aldrich, FW 368.7) at 0.5 mg/10^8 cells (6.6×10^7/cell). After vortexing for 30 s, cell debris was removed by centrifugation (1000 g for 10 min) and samples were washed with 0.2 volume of 0.9% NaCl. After centrifugation, supernatants were removed and the organic phase solutions were dried under a stream of nitrogen. Samples were then dissolved in chloroform:methanol (1:2) at 1.0×10^9 cells/ml.
# (§4) Electron impact gas chromatography/mass spectrometry (GC/MS) analyses of sterol lipids were performed on a Finnigan (San Jose, Calif.) SSQ-7000 single-stage quadrupole mass spectrometer with a Varian (Walnut Creek, Calif.) 3400 GC, which is controlled by Finnigan ICIS software operated on a DEC alpha station. The extracts in solution […] were injected in a splitless mode and analyzed by GC on a Restek (Bellefonte, Pa.) RTX-5 column (15 m, 0.33 mm id, […]). The initial temperature of GC was set at 80° C. for 1 min, increased to 220° C. at a rate of 50° C./min, and then raised to a final temperature of 280° C. at a rate of 10° C./min. The temperatures of the injector, transfer line of the GC column, and of the ion-source were set at 280° C., 280° C., and 240° C., respectively. The full scan mass spectra (50 to 500 Dalton) were acquired at a rate of 1 scan/0.25 Sec.
# [2] = test system: L. major LV39 WT promastigotes; experiment: Composition of free sterols by GC/MS, WT promastigotes; type: cell-based, Leishmania major; settings: 48 hours
# Experimental: as §1, §2, §3, §4
# [3] = test system: L. major LV39 WT promastigotes; experiment: microbe, parasite or virus in culture; type: cell-based, Leishmania major; settings: for EC50: Leishmania major
# Experimental: (§5) Log phase L. major LV39 WT and spt2 promastigotes were inoculated at 1.0×10^5 cells/ml and culture densities were determined 48 hours later.
# (§6) Wild type (WT) L. major LV39 clone 5 (Rho/SU/59/P), FV1 (MOHM/IL/80/Friedlin virulent clone 1), spt2^− (Δspt2::HYG/Dspt2::PAC), ads1^− (Δads1::HYG/Dads1::SAT), and spt2^−/+SPT2 (Δspt2::HYG/Dspt2::PAC/+pXG-SPT2) cells were grown in M199 with 10% FBS and supplements as described [Zhang, et al., 2003; Kapler, et al., 1990]. For growth inhibition assays, promastigotes were inoculated at 1.0×10^5 cells/ml (in T25 flasks, 5 ml of medium per flask) in various concentrations of drugs. All cultures contained equivalent amount of DMSO or methanol (0.1% or less, from drug stocks). After 48 or 96 (for ads1^− only) hours, culture densities were determined using a Coulter counter (Z1, Beckman) and effects of drugs on growth were assessed in relative to cultures grown in the absence of drugs.
# A classical isobologram was constructed by plotting EC50s of drugs either alone or in combination.
# [4] = test system: L. major spt2^− promastigotes; experiment: Detergent resistant membrane fractions (insoluble GP63), spt2^− promastigotes; type: cell-based, Leishmania major
# Experimental: (§7) Detergent resistant membrane fractions (DRMs) were prepared using Triton X-100 from L. major promastigotes as previously described [Zhang, et al., 2003. Such DRMs are usually enriched for raft-associated materials and have been used to characterize rafts [London, et al., 2000; Brown, et al., 1998]. A typical marker for a raft in Leishmania parasites is GP63, a GPI-anchored metalloprotease, which can be detected from DRM samples by western-blot [Zhang, et al., 2003].
# as §2, with “DRMs were also isolated and the percentage of GP63 that were insoluble at 4° C. was used as an indicator for the integrity of DRM (see FIG. 2). Two to four independent experiments were performed and the averaged results were plotted in FIG. 3.” left out
# (§8) Detergent resistant membrane fractions (DRMs) were isolated and a western blot with a monoclonal antibody again Leishmania GP63 #235 was performed as previously described [Zhang, et al., 2003]. Percentages of GP63 in soluble and insoluble fraction after extractions at 4° C. were determined using a Fuji FLA5000 phosphoimager.
# [5] = test system: L. major spt2^− promastigotes; experiment: microbe, parasite or virus in culture; type: cell-based, Leishmania major; settings: for EC50: Leishmania major, 48 h, read-out: EC50 in spt2^−; for EC50 (WT)/EC50 (spt2^−): ratio
# Experimental: as §5, §6
# [6] = test system: L. major LV39 WT promastigotes; experiment: Detergent resistant membrane fractions (insoluble GP63), WT promastigotes; type: cell-based, Leishmania major
# Experimental: as §7
# as §2, with “DRMs were also isolated and the percentage of GP63 that were insoluble at 4° C. was used as an indicator for the integrity of DRM (see FIG. 2). Two to four independent experiments were performed and the averaged results were plotted in FIG. 3.” left out
# as §8
# [7] = test system: L. major ads1^− promastigotes; experiment: Growth inhibition assay, EPL-null ads1^− mutant versus FV1 WT; type: cell-based, Leishmania major; settings: 96 hours for ads1^−
# Experimental: as §6
# [8] = test system: Leishmania amastigotes growing in murine macrophages; experiment: Amastigotes growing in murine macrophages; type: cell-based; settings: preliminary results, data not shown
# [9] = test system: L. major spt2^− promastigotes; experiment: Flagellar localization of FcaBP-HA (immunofluorescence), spt2^− promastigotes; type: cell-based, Leishmania major; settings: concentration 5˜10 times of EC50 for 20 hours, data not shown
# [10] = 48 h, LV39 WT promastigotes, 48 hours, read-out: EC50 in WT
smiles,measurement,setting,value
CCC(C)n1ncn(-c2ccc(N3CCN(c4ccc(OCC5COC(Cn6cncn6)(c6ccc(Cl)cc6Cl)O5)cc4)CC3)cc2)c1=O (centres unmarked) [Itraconazole],5-dehydroepisterol (%),[1]; spt2^− + 1 nM ITZ,3.7%
same,14-methylfecosterol (%),[1]; spt2^− + 1 nM ITZ,59.4%
same,Cholesterol (%),[1]; spt2^− + 1 nM ITZ,22.0%
same,Episterol (%),[1]; spt2^− + 1 nM ITZ,1.6%
same,Ergosterol (%),[1]; spt2^− + 1 nM ITZ,13.2%
same,Lanosterol (%),[1]; spt2^− + 1 nM ITZ,0.1%
same,Total sterols/cell,[1]; spt2^− + 1 nM ITZ,4.0 × 10^8 /cell
same,5-dehydroepisterol (%),[1]; spt2^− + 5 nM ITZ,2.1%
same,14-methylfecosterol (%),[1]; spt2^− + 5 nM ITZ,75.2%
same,Cholesterol (%),[1]; spt2^− + 5 nM ITZ,17.1%
same,Episterol (%),[1]; spt2^− + 5 nM ITZ,0.4%
same,Ergosterol (%),[1]; spt2^− + 5 nM ITZ,4.0%
same,Lanosterol (%),[1]; spt2^− + 5 nM ITZ,1.2%
same,Total sterols/cell,[1]; spt2^− + 5 nM ITZ,4.4 × 10^8 /cell
same,endogenous sterols,"[1]; spt2^−, 1˜10 nM ITZ",4˜6%
same,5-dehydroepisterol (%),[2]; WT + 1 nM ITZ,9.6%
same,14-methylfecosterol (%),[2]; WT + 1 nM ITZ,62.3%
same,Cholesterol (%),[2]; WT + 1 nM ITZ,2.9%
same,Episterol (%),[2]; WT + 1 nM ITZ,0.9%
same,Ergosterol (%),[2]; WT + 1 nM ITZ,24.3%
same,Total sterols/cell,[2]; WT + 1 nM ITZ,2.0 × 10^8 /cell
same,5-dehydroepisterol (%),[2]; WT + 5 nM ITZ,1.7%
same,14-methylfecosterol (%),[2]; WT + 5 nM ITZ,92.2%
same,Cholesterol (%),[2]; WT + 5 nM ITZ,3.2%
same,Ergosterol (%),[2]; WT + 5 nM ITZ,2.9%
same,Total sterols/cell,[2]; WT + 5 nM ITZ,3.3 × 10^8 /cell
same,14-methylfecosterol among all sterols,"[2]; WT, 1˜10 nM ITZ",80˜92%
same,endogenous sterols,"[2]; WT, 1˜10 nM ITZ",4˜6%
same,EC50,[3]; [10],~1100 nM
same,EC50,"[3]; LV39 WT grown in the presence of 10 μM MYR, read-out: EC50 for ITZ in WT + 10 μM myriocin",~4.6 nM
same,EC50,[3]; read-out: EC50 of ITZ in combination with 25 μM MYR,0.92 nM
same,EC50,[3]; read-out: EC50 of ITZ in combination with […] MYR,131 nM
same,Growth (%),"[3]; WT + 1 nM ITZ, 48 hours",91.5%
same,Growth (%),"[3]; WT + 5 nM ITZ, 48 hours",81.6%
same,"growth, % of control","[3]; WT, 1˜10 nM ITZ, 48 hours",75˜95%
same,ITZ concentration causing significant reduction of insoluble GP63 at 4° C.,[4]; spt2^− parasites,higher than 1 nM
same,GP63 in DRM,"[4]; spt2^−, 1˜10 nM ITZ, 4° C., 45˜50% in control cells",24˜28%
same,EC50,[5],3.9 nM
same,EC50 (WT)/EC50 (spt2^−),[5],282
same,Growth (%),"[5]; spt2^− + 1 nM ITZ, 48 hours",64.6%
same,Growth (%),"[5]; spt2^− + 5 nM ITZ, 48 hours",29.4%
same,"proliferation, % of control","[5]; spt2^−, 1˜10 nM ITZ, 48 hours",28˜67%
same,ITZ concentration significantly inhibiting growth and DRM stability in WT,[6]; WT parasites,more than 100 nM
same,GP63 in DRM,"[6]; WT, 1˜10 nM ITZ, 4° C., 50˜55% in control cells",40˜55%
"CCCCCCC(=O)CCCCCC/C=C/C[C@@H](O)[C@H](O)[C@@](N)(CO)C(=O)O [MYR, myriocin]",EC50,[3]; [10],~55000 nM
same,EC50,"[3]; LV39 WT, 750 nM ITZ, read-out: EC50 of MYR in combination with 750 nM ITZ",1500 nM
same,EC50,"[3]; read-out: EC50 for MYR in the presence of 0.5 μM ITZ, LV39 WT, 500 nM ITZ",~1800 nM
same,EC50,"[3]; read-out: EC50 of MYR in combination with 250 nM ITZ, LV39 WT, 250 nM ITZ",2200 nM
same,Sensitivity of ads1^− mutant in comparison to FV1 WT,[7],hypersensitive
same,Effect of MYR on the efficacy of ITZ on amastigotes,[8],does not improve the efficacy of ITZ
CN(C/C=C/C#CC(C)(C)C)Cc1cccc2ccccc12 [Terbinafine],Mislocalization of FcaBP-HA,[9],did not show such defect
same,EC50,[3]; [10],4300 nM
same,Sensitivity of ads1^− mutant in comparison to FV1 WT,[7],very similar EC50s; also recorded: little or no selectivity
same,EC50,[5],3300 nM
same,EC50 (WT)/EC50 (spt2^−),[5],1.3
same,Selectivity against spt2^− parasites (in words),[5]; spt2^− versus LV39 WT,did not cause the extreme hypersensitivity

# From patent publication US20080119483A1, “COMPOSITIONS AND METHODS FOR INHIBITING PROTOZOAN GROWTH” (priority 2006, published 2008)
